Several values for one entry are separate records, joined by “and”; a condition that tells them apart may be missing. Identical values can stand only once.
Experiments:
in vivo = assay: in vivo
Experimental: C57BL/6 mice, 8 weeks old, female/male, 27, supplier: SPF (Beijing) Biotechnology Co., Ltd.
The body weight of the animals was measured and recorded daily.
All groups were subjected to clinical observations before administration and 1 to 2 h after administration, and additional observations were performed if necessary. Deaths and mortality were checked twice daily. The observations should include, but are not limited to, the following: fur condition, activity, mental status, vomiting, diarrhea, and abnormal secretions around the eyes. All animals should be observed on the day of necropsy, and any abnormal findings should be recorded.
The rectal temperature of all animals was measured and recorded at 0 h before administration and at 2 h, 4 h, 8 h and 24 h after administration.
The experiment was terminated on day 7 after administration. A gross necropsy was performed to examine abdominal and thoracic organs for lesions, and the spleen and liver were collected for weighing.

hepatitis B virus (HBV) = assay: Anti-hepatitis B virus activity in HBV-infected primary human hepatocytes; format: cell-based, HBV type B; conditions: HBV-infected PHHs
Experimental: The culture supernatant from one donor (donor 1) was selected to stimulate HBV-infected primary hepatocytes (PHHs), and interferon α and nucleoside analog entecavir (ETV) were selected as positive controls. The experimental procedures were as follows (FIG. 14a), and the detailed procedures were as follows: On day -1, cryopreserved PHHs were thawed and adjusted to a density of 6 × 10^5 cells/mL, and the PHHs were seeded into a 48-well plate at 0.22 mL/well.
On day 0, the PHHs were infected with HBV type B at 600 GE/cells.
On day 1, the culture medium was replaced with a fresh one, and reference compounds ETV and Peg-IFN-α2a (Pegasys-Roche) were added to the cells to treat the cells. The reference compounds ETV and Peg-IFN-α2a for the PHHs were each prepared at one concentration, with three replicate wells.
The PBMC supernatants were each prepared at 4 test concentrations, diluted at a ratio of 1:4, and then added to the cells. Three replicate wells were made for each test condition. The culture medium was replaced with a fresh culture medium containing the PBMC supernatants and the reference compounds on days 5, 7, 9, and 11. On day 13, the cell supernatants were collected and the cell viability was detected using CCK-8.
The content of HBV DNA in the supernatants was determined by qPCR according to the kit instructions. HBsAg and HBeAg levels in the supernatants were determined by ELISA.

[1] = system: ISG15, ISG56, Mx1, and Oaslb; assay: Liver safety: qPCR of interferon-related genes in liver tissue; format: in vivo, C57BL/6J wild-type female mice
Experimental: C57BL/6J wild-type female mice (6 weeks old) were randomly grouped. After administration at different doses, whole blood and liver tissues of the mice were separately collected at 1 h, 2 h, and 4 h for detection of a plurality of parameters to evaluate the effect of the drugs on the liver.
Liver tissues and blood were collected at 1 h, 2 h, and 4 h after single dosing.
The supernatant was collected and stored (-20 °C); • (3) IFN-α, IP-10, IL-6, and TNF-α were detected using an ELISA kit. • (C) Remaining liver tissue-HE staining and pathological evaluation. • (D) 1/2 blood (whole blood)-liver function parameter detection: AST (aspartate aminotransferase), ALT (alanine aminotransferase/glutamate pyruvate transaminase), ALP (alkaline phosphatase), ALB (albumin), and GGT (γ-glutamyl transferase). • (E) 1/2 blood-serum preparation-reserve for ELISA.

hERG potassium channel = hERG potassium channel (Homo sapiens, UniProt Q12809); assay: hERG whole-cell patch-clamp; format: cell-based; conditions: whole-cell patch-clamp; read-out: hERG (IC50)
Excerpt: The rapidly activated potassium channel encoded by human ether-a-go-go-related gene (hERG) is an important ion channel involved in the formation of cardiac action potential phase 3 repolarization. Drug-induced blockade of hERG channels can lead to delayed cardiac repolarization, manifested as QT interval prolongation on the electrocardiogram, known as long QT syndrome. Drug-induced delayed ventricular repolarization may, under certain circumstances, trigger fatal arrhythmias-torsade de pointes-type ventricular tachycardia. In this study, the whole-cell patch-clamp technique (the standard method for hERG safety assessment) was employed to evaluate the inhibitory effects of the small-molecule compounds on the hERG potassium channel and to assess the risk of ventricular repolarization toxicity.

[2] = Solubility in phosphate buffer at pH 7.4
[3] = C57BL/6 mice, single intragastric administration

hERG potassium channel, sequence (Q12809 whole entry): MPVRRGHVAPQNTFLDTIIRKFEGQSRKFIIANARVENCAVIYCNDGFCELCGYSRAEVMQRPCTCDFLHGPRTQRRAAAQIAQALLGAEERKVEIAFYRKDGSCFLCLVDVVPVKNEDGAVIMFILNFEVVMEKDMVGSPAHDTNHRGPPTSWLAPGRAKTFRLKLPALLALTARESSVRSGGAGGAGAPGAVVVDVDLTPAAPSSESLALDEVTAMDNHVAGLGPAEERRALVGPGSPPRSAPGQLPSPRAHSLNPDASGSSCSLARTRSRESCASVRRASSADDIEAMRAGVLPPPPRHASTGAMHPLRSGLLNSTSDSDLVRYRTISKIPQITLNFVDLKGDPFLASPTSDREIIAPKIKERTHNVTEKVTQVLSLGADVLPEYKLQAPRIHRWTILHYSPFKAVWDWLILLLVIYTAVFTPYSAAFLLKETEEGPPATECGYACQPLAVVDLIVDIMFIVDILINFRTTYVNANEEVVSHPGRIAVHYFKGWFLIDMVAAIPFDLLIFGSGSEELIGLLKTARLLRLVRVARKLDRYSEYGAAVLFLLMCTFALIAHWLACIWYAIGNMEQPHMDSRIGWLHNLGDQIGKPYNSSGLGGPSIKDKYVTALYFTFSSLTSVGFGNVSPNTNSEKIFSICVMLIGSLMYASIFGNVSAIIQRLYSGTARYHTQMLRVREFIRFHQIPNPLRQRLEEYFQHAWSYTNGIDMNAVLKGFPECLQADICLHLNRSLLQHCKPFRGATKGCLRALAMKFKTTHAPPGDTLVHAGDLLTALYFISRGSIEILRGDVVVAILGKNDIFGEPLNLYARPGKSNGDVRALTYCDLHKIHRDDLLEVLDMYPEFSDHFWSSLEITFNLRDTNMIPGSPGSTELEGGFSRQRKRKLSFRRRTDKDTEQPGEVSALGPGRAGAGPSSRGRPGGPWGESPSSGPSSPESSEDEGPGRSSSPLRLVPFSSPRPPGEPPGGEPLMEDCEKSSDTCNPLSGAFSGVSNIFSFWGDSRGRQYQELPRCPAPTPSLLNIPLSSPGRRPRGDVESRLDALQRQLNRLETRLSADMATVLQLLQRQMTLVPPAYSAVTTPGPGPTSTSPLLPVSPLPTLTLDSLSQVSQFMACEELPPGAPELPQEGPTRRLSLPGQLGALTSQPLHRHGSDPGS

With `COCCNc1nc(N)nc2ccc(Cc3ccc(CN4CCOCC4)cc3)nc12` [Compound II] the Cage-side observation (in vivo; 20 mg/kg, group 6, male animal No. 35, day 2) was “white secretions around the eyes”, the rectal temperature (in vivo; 2 h after treatment, significant difference vs vehicle group, returned to normal 4 h, 8 h and 24 h) was “decreased” and the “Adverse reactions at maximum tolerated dose/probability” value (in vivo; [3]) was “White secretion around the eyes (1/6)”. For the same compound, the “Weight loss at maximum tolerated dose: whether recovered” value (in vivo; [3]) was “Yes”, the “Weight loss rate at maximum tolerated dose” value (in vivo; [3]) was 14% and the “With or without mouse death” value (in vivo; [3]) was “No”. The body weight (in vivo; male and female animals, 10-40 mg/kg single administration, began to recover from day 3 to day 7) was “decreased after the single administration”, the MTD at 168 h (in vivo; mouse, in vivo, po) was 40 mg/kg and the “activity for inhibiting HBV DNA compared with Peg-IFN-α2a (100 IU/mL)” value (hepatitis B virus (HBV); PBMC supernatant (donor 1)) was “comparable”. The “activity for reducing hepatitis B surface antigen compared with Peg-IFN-α2a (100 IU/mL)” value (hepatitis B virus (HBV); PBMC supernatant (donor 1)) was “slightly stronger”, the “anti-HBV activity compared with GS-9688” value (hepatitis B virus (HBV); PBMC supernatant (donor 1)) was “significantly stronger” and the “levels of surface antigens HBeAg and HBsAg” value (hepatitis B virus (HBV); agonist-treated PBMC supernatant (donor 1) or reference compound, supernatant ELISA day 13) was “significantly reduced”. The “level of HBV DNA” value (hepatitis B virus (HBV); agonist-treated PBMC supernatant (donor 1) or reference compound, supernatant qPCR day 13) was “significantly reduced”, the “relative expression levels of ISG15, ISG56, Mx1, and oas1b” value ([1]; 3/10/20 mpk i.g. single dose, 1 h to 4 h) was “increased over time, and peaked at 4 h” and the “mRNA expression level of interferon-related genes” value ([1]; dose of 3 mpk (pharmacodynamic dose)) was “significantly induced an increase”. For the same compound, the IC50 (hERG potassium channel) was 4.3 µM and > 10 µM and the “solubility improvement compared with N01(D18)” value [2] was “about 10 fold”.

Reference: patent EP4732839A1, “USE OF COMPOUND IN TREATMENT OF LIVER DISEASES” (priority 2023, dated 2025)
